Laboratory results published in ChEMBL document CHEMBL1201862, “PubChem BioAssay data set” (2004).
Activity calls are given as the source filed them. For most assays here, no stated cut-off is given here; in the data, actives have a measured IC50 and inactives only a lower limit.

How the values were obtained:
Format in all cases: functional
[1] = target: T1, Protein RecA (Mycobacterium tuberculosis, UniProt P9WHJ3); test: Fluorescence Cell-Free Homogeneous Dose Retest to Identify Inhibitors of RecA-Intein Splicing Activity. [Related pubchem assays (depositor defined):AID2097, AID2223, AID489010, AID492950]
T1 sequence (P9WHJ3 whole entry): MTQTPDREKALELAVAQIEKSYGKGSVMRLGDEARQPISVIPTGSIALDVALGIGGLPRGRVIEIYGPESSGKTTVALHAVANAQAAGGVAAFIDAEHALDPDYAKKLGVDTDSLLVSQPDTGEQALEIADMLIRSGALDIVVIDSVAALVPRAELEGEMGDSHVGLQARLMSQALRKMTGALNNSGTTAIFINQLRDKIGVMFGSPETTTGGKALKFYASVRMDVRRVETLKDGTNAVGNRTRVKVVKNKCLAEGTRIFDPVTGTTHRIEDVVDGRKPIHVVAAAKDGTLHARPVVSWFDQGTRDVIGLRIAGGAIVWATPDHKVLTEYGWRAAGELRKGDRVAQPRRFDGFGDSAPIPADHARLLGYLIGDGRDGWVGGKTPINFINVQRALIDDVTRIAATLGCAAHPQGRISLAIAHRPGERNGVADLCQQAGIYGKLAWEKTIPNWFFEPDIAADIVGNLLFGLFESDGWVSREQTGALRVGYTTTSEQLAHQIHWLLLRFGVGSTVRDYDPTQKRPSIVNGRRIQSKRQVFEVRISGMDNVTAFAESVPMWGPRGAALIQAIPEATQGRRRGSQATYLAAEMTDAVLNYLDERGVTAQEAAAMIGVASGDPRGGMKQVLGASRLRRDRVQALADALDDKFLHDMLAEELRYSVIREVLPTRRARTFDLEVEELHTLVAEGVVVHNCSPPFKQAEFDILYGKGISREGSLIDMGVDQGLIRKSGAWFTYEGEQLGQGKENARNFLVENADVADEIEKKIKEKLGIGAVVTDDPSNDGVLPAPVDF

[2] = target: T2, Sentrin-specific protease 7 (Homo sapiens, UniProt Q9BQF6);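 further: Luminescence-based dose-response confirmation of ultra-high-throughput screening hits, measuring inhibition of SENP7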
T2 sequence (Q9BQF6 whole entry): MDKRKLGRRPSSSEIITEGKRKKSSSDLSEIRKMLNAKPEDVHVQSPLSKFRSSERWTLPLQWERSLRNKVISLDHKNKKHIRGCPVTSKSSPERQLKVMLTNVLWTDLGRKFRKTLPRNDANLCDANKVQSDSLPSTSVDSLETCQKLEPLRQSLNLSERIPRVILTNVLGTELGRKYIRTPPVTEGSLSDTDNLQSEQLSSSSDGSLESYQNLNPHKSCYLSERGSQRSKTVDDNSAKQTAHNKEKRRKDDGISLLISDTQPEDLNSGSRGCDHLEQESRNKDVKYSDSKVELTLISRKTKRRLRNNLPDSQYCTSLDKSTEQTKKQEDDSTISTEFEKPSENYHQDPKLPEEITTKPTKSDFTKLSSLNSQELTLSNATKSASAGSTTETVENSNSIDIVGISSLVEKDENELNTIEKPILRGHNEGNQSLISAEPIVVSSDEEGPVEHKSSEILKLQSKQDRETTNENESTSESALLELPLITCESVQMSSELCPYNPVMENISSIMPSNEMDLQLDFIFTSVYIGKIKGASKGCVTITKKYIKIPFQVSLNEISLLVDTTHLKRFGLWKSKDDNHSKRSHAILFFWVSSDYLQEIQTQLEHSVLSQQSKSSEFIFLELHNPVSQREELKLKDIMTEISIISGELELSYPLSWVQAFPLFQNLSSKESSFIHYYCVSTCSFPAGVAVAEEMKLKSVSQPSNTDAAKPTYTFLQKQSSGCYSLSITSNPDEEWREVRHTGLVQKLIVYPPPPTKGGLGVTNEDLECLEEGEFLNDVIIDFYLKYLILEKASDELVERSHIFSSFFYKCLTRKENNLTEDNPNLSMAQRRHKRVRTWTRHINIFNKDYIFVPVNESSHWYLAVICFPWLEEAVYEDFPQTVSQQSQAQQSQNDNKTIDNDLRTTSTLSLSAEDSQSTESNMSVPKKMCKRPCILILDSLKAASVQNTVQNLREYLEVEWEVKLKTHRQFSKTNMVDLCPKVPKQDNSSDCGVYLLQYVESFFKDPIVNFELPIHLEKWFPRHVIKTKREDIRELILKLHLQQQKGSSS

[3] = target: T3, Caspase-3 (Homo sapiens, UniProt P42574);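 further: Dose-response selectivity test against caspase-3 for candidate inhibitors of sentrin-specific proteases (SENPs)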
T3 sequence (P42574 whole entry): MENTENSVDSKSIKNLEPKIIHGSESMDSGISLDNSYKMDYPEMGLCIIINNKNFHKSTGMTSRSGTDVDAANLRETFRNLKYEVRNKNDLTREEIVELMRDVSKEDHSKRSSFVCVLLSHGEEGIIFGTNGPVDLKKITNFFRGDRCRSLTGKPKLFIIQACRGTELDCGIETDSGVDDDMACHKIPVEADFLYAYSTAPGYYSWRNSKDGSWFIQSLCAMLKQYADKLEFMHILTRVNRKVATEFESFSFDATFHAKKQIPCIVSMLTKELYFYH

[4] = target: T4, Sentrin-specific protease 8 (Homo sapiens, UniProt Q96LD8);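 further: luminescence read-out of SENP8 inhibition, dose-response confirmation following an ultra-high-throughput screen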
T4 sequence (Q96LD8 whole entry): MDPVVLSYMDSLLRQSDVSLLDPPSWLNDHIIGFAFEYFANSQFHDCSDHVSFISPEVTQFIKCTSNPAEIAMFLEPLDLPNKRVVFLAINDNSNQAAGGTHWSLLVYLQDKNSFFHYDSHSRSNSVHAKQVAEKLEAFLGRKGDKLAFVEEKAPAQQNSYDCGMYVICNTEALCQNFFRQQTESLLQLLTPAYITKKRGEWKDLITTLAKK

Structure (SMILES)	EC50 [1]	IC50 [2]	IC50 [3]	IC50 [4]
O=C(O)C1Nc2c(O)cc(Cl)c([N+](=O)[O-])c2C2C=CCC12 (configuration not stated)	11.5 µM (active)	–	–	–
O=C1N=C(NS(=O)(=O)Cc2ccccc2)S/C1=C1\C(=O)Nc2ccccc21	–	3.76 µM (active)	67.2 µM (active)	24.5 µM (active)
O=C1C=C(N2CCCCC2)c2ccccc2C1=O	1.25 µM (active)	–	–	–
Clc1ccc2nc(-c3ccc(Br)s3)cn2c1	–	7.91 µM (active)	11.2 µM (active)	16.5 µM (active)
CC(=O)NC1C(=O)N(CCN2CCOCC2)c2ccc(F)cc21 (configuration not stated)	12.1 µM (active)	–	–	–
Oc1ccc(N=Nc2c(O)ccc3ccccc23)cc1	–	8.49 µM (active)	49.7 µM (active)	8.8 µM (active)
